According to US20210403420A1, “BENZOATE COMPOUND” (SCOHIA PHARMA, INC., priority 2018, published 2021):
Where a name gives a salt, the structure may show the parent alone.

Assays:
[1] = target: T1, Human recombinant enteropeptidase (Homo sapiens, UniProt P98073); test: Human enteropeptidase inhibitory activity; format: biochemical; conditions: 1 μM test compound; fluorescence intensity at 2 hours after start of reaction; read-out: Inhibition rate at 1 μM
T1 construct: purchased ITSI-Biosciences LLC #REN-260
Description: Test Example 1: Human Enteropeptidase Inhibitory Activity
Human recombinant enteropeptidase (#REN-260, ITSI-Biosciences LLC) was diluted with an assay buffer (50 mM Tricine, pH 8.0, 0.01 (w/v) %, Tween 20, 10 mM CaCl2)) to prepare a 24 mU/mL enzyme solution. Subsequently, 5FAM-Abu-Gly-Asp-Asp-Asp-Lys-Ile-Val-Gly-Gly-Lys(CPQ2)-Lys-Lys-NH2 (CPC Scientific Inc.) was diluted with the assay buffer to prepare a 2.1 μM substrate solution. A test compound is dissolved in DMSO into a 10 mM solution, and the solution was diluted with the assay buffer to give a compound solution. To a 384-well black plate (#784076, Greiner Bio-One), 5 μL of the compound solution and 5 μL of the substrate solution were added and mixed, and 5 μL of the enzyme solution was then added to the mixture, followed by mixing to start the reaction. The fluorescence intensity was measured with a fluorescence plate reader EnVision (The Perkin-Elmer Corp.) at an excitation wavelength of 485 nm and a fluorescence wavelength of 535 nm. The same reaction as above was performed without the addition of the test compound (test compound non-addition group). Furthermore, the same reaction as above was performed without the addition of the test compound and the enzyme (control group). The inhibition rate was calculated using the fluorescence intensity at 2 hours after the start of the reaction by the following expression:
Inhibition rate (%)=(1−((fluorescence intensity of test compound addition group)−(fluorescence intensity of control group))/((fluorescence intensity of test compound non-addition group)−(fluorescence intensity of control group)))×100

High fat diet-fed mice = test: Fecal protein concentration-increasing test using high fat diet-fed mouse; format: in vivo; conditions: 30 mg/kg oral, feces of first day of administration; for response vs control in vivo at 30 mg/kg: Mus musculus, po, 24 h, vehicle group = 100, read-out: Fecal protein concentration-increasing rate
From the text: Test Example 2: Fecal Protein Concentration-Increasing Test Using High Fat Diet-Fed Mouse
High fat diet-fed mice (D12451 diet, male, 10- to 50-week old) were orally administered with a 0.5% methyl cellulose suspension containing a test compound (compound administration group, five mice per group) or a 0.5% methyl cellulose suspension (compound non-administration group (vehicle group), five mice per group), and whole feces were collected on the first day of administration. Dried feces were dissolved in 0.5 N NaOH, followed by centrifugation at 12,000 rpm. The protein concentration in the supernatant was then quantitatively measured (Lowry method), and the amount of protein contained in 1 g of feces was calculated as the fecal protein concentration (mg/g feces). The fecal protein concentration-increasing rate was calculated by the following expression.
Fecal protein concentration-increasing rate (%)=Fecal protein concentration of compound administration group/Fecal protein concentration of vehicle group×100

[2] = tested on: Diet-induced obesity (DIO) mice; test: Anti-obesity effect test using DIO mouse; format: in vivo; conditions: for Body weight (g) At start of administration: average at start of administration; for Body weight (g) After 7-day administration: average; for Fecal protein concentration-increasing rate (%): feces of eighth day, vehicle = 100
Description: Test Example 3: Anti-Obesity Effect Test Using DIO Mouse
Diet-induced obesity (DIO) mice (D12451 diet, male, 26-week old) were orally administered with a 0.5% methyl cellulose suspension containing a test compound (30 mg/kg) (compound administration group, five mice per group) or a 0.5% methyl cellulose suspension (compound non-administration group (vehicle), five mice per group) once a day for seven days, and whole feces were collected on the eighth day of administration. Dried feces were dissolved in 0.5 N NaOH, followed by centrifugation at 12,000 rpm. The protein concentration in the supernatant was then quantitatively measured (Lowry method), and the amount of protein contained in 1 g of feces was calculated as the fecal protein concentration (mg/g feces). The fecal protein concentration-increasing rate was calculated by the following expression.
Fecal protein concentration-increasing rate (%)=Fecal protein concentration of compound administration group/Fecal protein concentration of vehicle group X 100
The fecal protein concentration-increasing rate and the averages of the body weights at the start of administration and after administration for seven days are shown in Table 6.
Also, DIO mice (D12451 diet, male, 59-week old) were orally administered with a 0.5% methyl cellulose suspension containing a test compound (20 mg/kg) (compound administration group, five mice per group) or a 0.5% methyl cellulose suspension (compound non-administration group (vehicle), five mice per group) once a day for seven days, and whole feces were collected on the eighth day of administration. The fecal protein concentration (mg/g feces) was calculated by the method described above. The fecal protein concentration-increasing rate and the averages of the body weights at the start of administration and after administration for seven days are shown in Table 7.

[3] = DIO mice 59-week old, 20 mg/kg oral once a day for seven days
[4] = DIO mice 26-week old, 30 mg/kg oral once a day for seven days

T1 sequence (P98073 whole entry): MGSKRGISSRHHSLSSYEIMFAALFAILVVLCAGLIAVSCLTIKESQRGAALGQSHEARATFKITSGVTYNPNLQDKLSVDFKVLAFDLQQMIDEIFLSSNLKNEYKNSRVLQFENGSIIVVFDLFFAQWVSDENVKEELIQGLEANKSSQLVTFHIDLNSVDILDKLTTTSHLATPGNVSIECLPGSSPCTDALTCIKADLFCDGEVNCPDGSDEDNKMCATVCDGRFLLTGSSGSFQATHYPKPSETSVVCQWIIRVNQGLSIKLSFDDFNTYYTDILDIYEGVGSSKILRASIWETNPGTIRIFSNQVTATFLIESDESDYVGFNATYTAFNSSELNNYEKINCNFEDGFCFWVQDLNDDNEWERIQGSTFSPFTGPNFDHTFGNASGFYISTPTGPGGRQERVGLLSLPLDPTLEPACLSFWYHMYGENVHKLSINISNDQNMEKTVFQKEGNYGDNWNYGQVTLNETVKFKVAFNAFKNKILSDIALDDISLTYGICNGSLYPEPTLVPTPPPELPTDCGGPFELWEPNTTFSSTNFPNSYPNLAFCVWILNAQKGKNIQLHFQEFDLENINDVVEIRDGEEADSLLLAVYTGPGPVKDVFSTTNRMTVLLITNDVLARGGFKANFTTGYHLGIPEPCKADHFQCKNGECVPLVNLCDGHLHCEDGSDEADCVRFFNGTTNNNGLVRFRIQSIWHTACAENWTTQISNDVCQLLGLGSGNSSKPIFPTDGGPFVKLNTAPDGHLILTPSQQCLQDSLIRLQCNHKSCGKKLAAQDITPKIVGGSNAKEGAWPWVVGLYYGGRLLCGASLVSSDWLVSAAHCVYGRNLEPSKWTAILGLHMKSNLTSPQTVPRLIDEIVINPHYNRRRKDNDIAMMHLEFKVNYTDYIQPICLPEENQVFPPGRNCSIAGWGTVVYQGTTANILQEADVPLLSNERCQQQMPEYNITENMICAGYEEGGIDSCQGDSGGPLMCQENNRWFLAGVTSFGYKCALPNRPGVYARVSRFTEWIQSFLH

Row | inhibition at 1 µM [1] [%] | Compound | response vs control in vivo at 30 mg/kg (High fat diet-fed mice) [%] | further results
1 | 60 | N=C(N)Nc1ccc(C(=O)Oc2cc(OCCOCCOCCOc3cc(OC(=O)c4ccc(NC(=N)N)cc4)cc(C(=O)N[C@H](CCCCN)C(=O)O)c3)cc(C(=O)N[C@H](CCCCN)C(=O)O)c2)cc1 [Example 11, (2R)-6-Amino-2-[[3-[2-[2-[2-[3-[[(1R)-5-amino-1-carboxypentyl]carbamoyl]-5-(4-guanidinobenzoyl)oxyphenoxy]ethoxy]ethoxy]ethoxy]-5-(4-guanidinobenzoyl)oxybenzoyl]amino]hexanoic acid] | 171 | 
2 | 100 | N=C(N)Nc1ccc(C(=O)Oc2ccc(CCC(=O)N[C@H](CC(=O)O)C(=O)O)c(OCCOCCOCCOc3cc(OC(=O)c4ccc(NC(=N)N)cc4)ccc3CCC(=O)N[C@H](CC(=O)O)C(=O)O)c2)cc1 [Example 14, (2R)-2-[3-[2-[2-[2-[2-[2-[3-[[(1R)-1,2-Dicarboxyethyl]amino]-3-oxopropyl]-5-(4-guanidinobenzoyl)oxyphenoxy]ethoxy]ethoxy]ethoxy]-4-(4-guanidinobenzoyl)oxyphenyl]propanoylamino]butanedioic acid] | 171 | 
3 | 100 | N=C(N)Nc1ccc(C(=O)Oc2cc(OCCOc3cc(OC(=O)c4ccc(NC(=N)N)cc4)cc(C(=O)N[C@@H](CC(=O)O)C(=O)O)c3)cc(C(=O)N[C@@H](CC(=O)O)C(=O)O)c2)cc1 [Example 9, (2S)-2-[[3-[2-[3-[[(1S)-1,2-Dicarboxyethyl]carbamoyl]-5-(4-guanidinobenzoyl)oxyphenoxy]ethoxy]-5-(4-guanidinobenzoyl)oxybenzoyl]amino]butanedioic acid] | 195 | 
4 | 100 | N=C(N)Nc1ccc(C(=O)Oc2cc(OCCOCCOc3cc(OC(=O)c4ccc(NC(=N)N)cc4F)cc(C(=O)N[C@H](CC(=O)O)C(=O)O)c3)cc(C(=O)N[C@H](CC(=O)O)C(=O)O)c2)c(F)c1 [Example 18, (2R)-2-[[3-[2-[2-[3-[[(1R)-1,2-Dicarboxyethyl]carbamoyl]-5-(2-fluoro-4-guanidinobenzoyl)oxyphenoxy]ethoxy]ethoxy]-5-(2-fluoro-4-guanidinobenzoyl)oxybenzoyl]amino]butanedioic acid] | 142 | 
5 | 100 | N=C(N)Nc1ccc(C(=O)Oc2cc(OCCOCCOCCOc3cc(OC(=O)c4ccc(NC(=N)N)cc4)cc(C(=O)N[C@H](CC(=O)O)C(=O)O)c3)cc(C(=O)N[C@H](CC(=O)O)C(=O)O)c2)cc1 [Example 6, (2R)-2-[[3-[2-[2-[2-[3-[[(1R)-1,2-Dicarboxyethyl]carbamoyl]-5-(4-guanidinobenzoyl)oxyphenoxy]ethoxy]ethoxy]ethoxy]-5-(4-guanidinobenzoyl)oxybenzoyl]amino]butanedioic acid ditrifluoroacetate] | 203 | 
6 |  | N=C(N)Nc1ccc(C(=O)Oc2ccc(C(=O)N[C@H](CC(=O)O)C(=O)O)c(OCCOc3cc(OC(=O)c4ccc(NC(=N)N)cc4)ccc3C(=O)N[C@H](CC(=O)O)C(=O)O)c2)cc1 [Example 22, (2R)-2-[[2-[2-[2-[[(1R)-1,2-Dicarboxyethyl]carbamoyl]-5-(4-guanidinobenzoyl)oxyphenoxy]ethoxy]-4-(4-guanidinobenzoyl)oxybenzoyl]amino]butanedioic acid dihydrochloride] |  | Body weight (g) At start of administration ([2]; DIO mice 59-week old, 20 mg/kg group): 56.5 g; Body weight (g) After 7-day administration [2, 3]: 55.1 g; Fecal protein concentration-increasing rate (%) [2, 3]: 221%
7 | 100 | N=C(N)Nc1ccc(C(=O)Oc2ccc(CCC(=O)N[C@H](CC(=O)O)C(=O)O)c(OCCOCCOc3cc(OC(=O)c4ccc(NC(=N)N)cc4)ccc3CCC(=O)N[C@H](CC(=O)O)C(=O)O)c2)cc1 [Example 13, (2R)-2-[3-[2-[2-[2-[2-[3-[[(1R)-1,2-Dicarboxyethyl]amino]-3-oxopropyl]-5-(4-guanidinobenzoyl)oxyphenoxy]ethoxy]ethoxy]-4-(4-guanidinobenzoyl)oxyphenyl]propanoylamino]butanedioic acid] | 150 | 
8 | 100 | N=C(N)Nc1ccc(C(=O)Oc2ccc(OCCOCCOc3ccc(OC(=O)c4ccc(NC(=N)N)cc4)cc3C(=O)N[C@H](CC(=O)O)C(=O)O)c(C(=O)N[C@H](CC(=O)O)C(=O)O)c2)cc1 [Example 19, (2R)-2-[[2-[2-[2-[2-[[(1R)-1,2-Dicarboxyethyl]carbamoyl]-4-(4-guanidinobenzoyl)oxyphenoxy]ethoxy]ethoxy]-5-(4-guanidinobenzoyl)oxybenzoyl]amino]butanedioic acid] | 215 | 
9 |  | N=C(N)Nc1ccc(C(=O)Oc2ccc(CCC(=O)N[C@@H](CC(=O)O)C(=O)O)c(OCCOCCOCCOc3cc(OC(=O)c4ccc(NC(=N)N)cc4)ccc3CCC(=O)N[C@@H](CC(=O)O)C(=O)O)c2)cc1 [Example 4, (2S)-2-[3-[2-[2-[2-[2-[2-[3-[[(1S)-1,2-Dicarboxyethyl]amino]-3-oxopropyl]-5-(4-guanidinobenzoyl)oxyphenoxy]ethoxy]ethoxy]ethoxy]-4-(4-guanidinobenzoyl)oxyphenyl]propanoylamino]butanedioic acid ditrifluoroacetate] |  | Fecal protein concentration-increasing rate (High fat diet-fed mice; vehicle group = 100, ditrifluoroacetate): 181%
10 | 92 | N=C(N)Nc1ccc(C(=O)Oc2cc(OCCOCCOCCOc3cc(OC(=O)c4ccc(NC(=N)N)cc4)cc(C(=O)N[C@H](CO)C(=O)O)c3)cc(C(=O)N[C@H](CO)C(=O)O)c2)cc1 [Example 10, (2R)-2-[[3-[2-[2-[2-[3-[[(1R)-1-Carboxy-2-hydroxyethyl]carbamoyl]-5-(4-guanidinobenzoyl)oxyphenoxy]ethoxy]ethoxy]ethoxy]-5-(4-guanidinobenzoyl)oxybenzoyl]amino]-3-hydroxypropanoic acid] | 179 | 
11 |  | N=C(N)Nc1ccc(C(=O)Oc2cc(OCCOCCOc3cc(OC(=O)c4ccc(NC(=N)N)cc4)cc(C(=O)N[C@@H](CC(=O)O)C(=O)O)c3)cc(C(=O)N[C@@H](CC(=O)O)C(=O)O)c2)cc1 [Example 17, (2S)-2-[[3-[2-[2-[3-[[(1S)-1,2-Dicarboxyethyl]carbamoyl]-5-(4-guanidinobenzoyl)oxyphenoxy]ethoxy]ethoxy]-5-(4-guanidinobenzoyl)oxybenzoyl]amino]butanedioic acid dihydrochloride] |  | Body weight (g) At start of administration ([2]; DIO mice 26-week old, 30 mg/kg group): 45.6 g; Body weight (g) After 7-day administration [2, 4]: 44.3 g; Fecal protein concentration-increasing rate (%) [2, 4]: 252%
12 | 98 | N=C(N)Nc1ccc(C(=O)Oc2cc(OCCOCCOCCOc3cc(OC(=O)c4ccc(NC(=N)N)cc4)cc(C(=O)N[C@@H](CC(=O)O)C(=O)O)c3)cc(C(=O)N[C@@H](CC(=O)O)C(=O)O)c2)cc1 [Example 1, (2S)-2-[[3-[2-[2-[2-[3-[[(1S)-1,2-Dicarboxyethyl]carbamoyl]-5-(4-guanidinobenzoyl)oxyphenoxy]ethoxy]ethoxy]ethoxy]-5-(4-guanidinobenzoyl)oxybenzoyl]amino]butanedioic acid ditrifluoroacetate] | 159 | 
